A short description of data set [1]: Water absorption for a modified Bis-GMA monomer, Karl Fischer titration. It counts as physicochemical. As for the experimental part: 2. Water absorption for a modified Bis-GMA monomer is measured according to Karl Fischer titration.
(§1) The modified Bis-GMA obtained in Example 2 and Bis-GMA were subjected to viscosity and water absorption tests.

Data set [2] is described as follows: Viscosity measured using a Brookfield viscosmeter. Format: physicochemical. The following applies: monomer. The procedure:
1. Viscosity is measured using a Brookfield viscosmeter.
as §1

With `C=C(C)C(=O)OCC(O)COc1ccc(C(C)(C)c2ccc(OCC(O)COC(=O)C(=C)C)cc2)cc1` (stereo not shown) [Bis-GMA, 2,2-bis[4-(2-hydroxyl-3-methacryloyloxy)phenyl] propane], the Water absorption in data set [1] is 35 mg/mm^3/week. The molecule also gave a Viscosity in data set [2] of 458400 cp.
The matching figures for `C=C(C)C(=O)OCC(COc1ccc(C(C)(C)c2ccc(OCC(COC(=O)C(=C)C)O[Si](CC)(CC)CC)cc2)cc1)O[Si](CC)(CC)CC` (stereo not shown) [Example 2]: 7.4 mg/mm^3/week and 440 cp.

Source of the values: patent US20090215921A1, “MODIFIED DIMETHYLACRYLATE MONOMER, METHOD FOR PREPARING THE SAME, AND POLYMERIC DENTAL COMPOSITE” (priority 2008, published 2009).
